From patent US9770503B2, “Immunomodulating compositions and uses therefor” (CANCURE LIMITED ACN 164 438 359, priority 2003, dated 2017)

test system: splenic lymphocytes cultured with C57bl6J derived B16F10 melanoma cells; assay: Mixed lymphocyte culture (MLC) screening assay, melanoma cells as stimulators; type: cell-based, mice; details: 3 days of growth; FIG. 4
From the text: The inventor has established a rapid screening assay for analysing the immune-enhancing activities of various lectin-interactive agents. The assay is based on the ability to grow lymphocytes derived from the spleens of vaccinated mice in mixed lymphocyte culture (MLC) in the presence or absence of the agents. The theory behind this approach is that tumour cells secrete galectins which then kill the T lymphocytes.
Tumour cells, either NeuD12 FVB/N 202 breast cancer cells or C57bl6J derived B16F10 melanoma cells were used as stimulators and target cells for the assays. The tumour cells used as stimulators in the MLC were prepared as outlined in WO 01/88097 to express high levels of B7 antigen and were treated with interferon γ (1000 IU/mL) for 24 h before addition of interferon β (1000 IU/mL) for a further 24-48 h. The tumour cells were grown in 35 mm diameter×6 well cell culture dishes at about 1.5×10^6 cells per well. The tumour cells, after IFN treatment, were incubated with the growth arresting drug, mitomycin C for 20-25 min in situ in the 6-well culture dishes before it was removed by washing with PBS or fresh media three times and resuspension in 4 mL of fresh complete RPMI media/10% FCS.
Lymphocytes were extracted from the spleen of vaccinated mice and passed through a 100-200 μm stainless steel mesh sieve into 5-10 mL complete RPMI media. The red blood cells were removed by centrifugation on lymphoprep and the white blood cell layer at the interface between the culture media phase and ficoll/Hypaque phase was harvested and the ficoll/Hypaque removed by washing. […] After 2-3 days, or as required (assessed by the colour of the media pH indicator change), half the media was carefully aspirated away from each well and replaced with fresh complete media with or without added lectin-interacting agent (e.g., a carbohydrate as disclosed for instance herein generally at about 0.1 mM to about 10 mM final concentration, typically at about 1 mM). […]

SMILES | proliferation of lymphocytes in a melanoma-specific MLC
OC[C@H]1O[C@@H](O[C@@H]2[C@@H](CO)OC(O)(CO)[C@H]2O)[C@H](O)[C@@H](O)[C@H]1O (mixture of isomers) [lactulose] | promoting the proliferation of lymphocytes
OC[C@@H](O)[C@@H](O[C@@H]1O[C@H](CO)[C@H](O)[C@H](O)[C@H]1O)[C@H](O)[C@@H](O)CO [D-lactitol monohydrate] | promoting the proliferation of lymphocytes
OC[C@H]1O[C@@H](O[C@H]2[C@H](O)[C@@H](O)[C@H](OCc3ccccc3)O[C@@H]2CO)[C@H](O)[C@@H](O)[C@H]1O [benzyl 4-O-β-D-galactopyranosyl-β-D-glucopyranoside] | promoting the proliferation of lymphocytes
